The values below come from US5045566A, “Novel imidate insecticides” (ICI Americas Inc., priority 1989, dated 1991).

A value given as a limit tells only on which side of the number the result lay.

What all share (type): in vivo
Assay [1] has as its system Housefly [Musca domestica]. Put plainly: Housefly contact mortality in dishes (HF), 48 hours. The settings on record: μg of test compound per 25 female flies. In outline: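 Dry-film exposure of 25 female houseflies per cage, 48 h; LC50 as μg per 25 flies.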
The subject of assay [2] is Black Bean Aphid [Aphis fabae (Scop.)]. Put plainly: Black bean aphid spray test on nasturtium (BBA), 48 hours. The settings on record: percent of test compound in sprayed solution. Here is the method:
The compounds in Tables 1 and 2 above were tested for insecticidal activity using the following testing procedures. LC50 values, based on the results of these tests and calculated according to dosage-mortality curves, are expressed in Table 3.
Black Bean Aphid [Aphis fabae (Scop.)]:
Nasturtium plants (Tropaeolum sp.) approximately 5 cm tall, were transplanted into sandy loam soil in small cups and infested with 25-50 black bean aphids of mixed ages. Twenty-four hours later they were sprayed to the point of runoff with 50-50 acetone-water solutions of the test compounds. Treated plants were held in the greenhouse and mortality was recorded after 48 hours. Test concentrations ranged from 0.05% downward. The LC-50 value is expressed below in Table 3 under the heading "BBA" in terms of percent of the test compound in the sprayed solution.

For assay [3], the system named is Tobacco Budworm [Heliothis virescens (Fabricius)] eggs. Put plainly: Tobacco budworm eggs (TBW-E). Conditions: percent in solution; 2-day old eggs. In outline: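 2-day eggs on paper towel, acetone dip, 0.1% and below; petri dish with larval diet, 78° F. Mortality read after control hatch and larval feeding. LC50 = % compound in solution, from dose-mortality curve.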

The test system of assay [4] is Cabbage Looper [Trichoplusia ni (Hubner)]. Put plainly: Cabbage looper leaf dip (CL), 3-5 days. Conditions: percent in solution, second-instar larvae. A digest of the protocol:
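LC50 values, given as percent test compound in solution, were calculated from dosage-mortality curves. Squash cotyledons were immersed 2-3 s in acetone-water (50-50) dilutions starting at 0.1%, dried on a screen, then infested with five second-instar larvae. Mortality was read 3-5 days on.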

On to `CC(C)C(=Nc1ccc(C#N)cc1)OCc1cccc(Oc2cccc(Cl)c2)c1` [Compound 208], for which, in assay [1], the “LC50 HF” value came out at 27 µg. In addition, the “LC50 BBA” value in assay [2] came to 0.05%. The “LC50 TBW E (eggs)” value in assay [3] is more than 0.1%. For the same molecule, the “LC50 CL” value in assay [4] amounted to 0.0035%.
As to `CCC(C)C(=Nc1ccc(Cl)c(Cl)c1)OCc1cccc(Oc2ccc(F)cc2)c1` (centres unmarked) [Compound 211], the “LC50 HF” value in assay [1] was 61 µg. Moreover, in assay [2], the “LC50 BBA” value was 0.01%. For the same molecule, the “LC50 TBW E (eggs)” value in assay [3] is more than 0.1%. Further, the “LC50 CL” value in assay [4] came to 0.0017%.
On to `CC(C)C(=Nc1ccc(F)c(F)c1)OCc1cccc(Oc2ccc(C#N)cc2)c1` [Compound 212], for which, in assay [1], the “LC50 HF” value stood at 20 µg. Also, the “LC50 BBA” value in assay [2] worked out at 0.05%. For the same molecule, in assay [3], the “LC50 TBW E (eggs)” value amounted to 0.045%. In assay [4], the “LC50 CL” value came to 0.0005%.
In the same order, the values of `CC(C)C(=Nc1ccc(Cl)c(Cl)c1)OCc1cccc(Oc2ccc(F)cc2F)c1` [Compound 213] are more than 100 µg, 0.01%, more than 0.1% and 0.00075%.
In the same order, the values of `CC(C)C(=Nc1ccc(F)c(F)c1)OCc1cccc(Oc2ccc(F)cc2F)c1` [Compound 214] are 19 µg, 0.01%, 0.04% and 0.0003%.
In the case of `CC(C)C(=Nc1ccc(F)c(Cl)c1)OCc1cccc(Oc2cc(F)cc(F)c2)c1` [Compound 215], in assay [1], the “LC50 HF” value amounted to 75 µg. Moreover, the “LC50 BBA” value in assay [2] is recorded as 0.05%. Besides, the “LC50 TBW E (eggs)” value in assay [3] was more than 0.1%. Besides, in assay [4], the “LC50 CL” value turned out to be 0.00075%.
Turning to `CC(C)C(=Nc1ccc(Cl)c(Cl)c1)OCc1cccc(Oc2ccc(F)c(F)c2)c1` [Compound 218], the “LC50 HF” value in assay [1] was 25 µg. Moreover, the “LC50 BBA” value in assay [2] is 0.003%. Besides, the “LC50 TBW E (eggs)” value in assay [3] was 0.025%. The “LC50 CL” value in assay [4] is given as 0.0003%.
The matching figures for `COc1ccc(Oc2cccc(COC(=Nc3ccc(F)cc3)C(C)C)c2)cc1` [Compound 220]: 85 µg, 0.03%, more than 0.1% and 0.007%.
Consider `COc1ccc(Oc2cccc(COC(=Nc3ccc(F)c(Cl)c3)C(C)C)c2)cc1` [Compound 221], for which, in assay [1], the “LC50 HF” value was 62 µg. The “LC50 BBA” value in assay [2] was found to be 0.01%. Further, in assay [3], the “LC50 TBW E (eggs)” value is listed as more than 0.1%. Further, the “LC50 CL” value in assay [4] was found to be 0.0027%.
The matching figures for `CC(C)C(=Nc1ccc(C#N)c(F)c1)OCc1cccc(Oc2ccc(F)cc2)c1` [Compound 222]: 32 µg, 0.01%, more than 0.1% and 0.0015%.
In the same order, the values of `COc1ccc(Oc2cccc(COC(=Nc3ccc(Cl)c(Cl)c3)C(C)C)c2)cc1` [Compound 223] are 43 µg, 0.003%, more than 0.1% and 0.008%.
In the same order, the values of `CC(C)(Cl)C(=Nc1ccc(F)c(Cl)c1)OCc1cccc(Oc2ccc(F)cc2)c1` [Compound 224] are more than 100 µg, 0.05%, more than 0.1% and 0.001%.
As to `CC(C)C(=Nc1ccc(C#N)cc1)OCc1cccc(Oc2ccc(F)cc2)c1` [Compound 227], the “LC50 HF” value in assay [1] was 10 µg. In addition, the “LC50 BBA” value in assay [2] is given as 0.01%. Also, the “LC50 TBW E (eggs)” value in assay [3] was 0.1%. Moreover, the “LC50 CL” value in assay [4] turned out to be 0.0015%.
Turning to `CC(C)C(=Nc1cccc(Br)c1)OCc1cccc(Oc2ccc(F)cc2)c1` [Compound 229], the “LC50 HF” value in assay [1] was found to be 20 µg. Further, the “LC50 BBA” value in assay [2] was 0.006%. For the same molecule, the “LC50 TBW E (eggs)” value in assay [3] was more than 0.1%. Moreover, the “LC50 CL” value in assay [4] was 0.0005%.
In the case of `Cc1ccc(Oc2cccc(COC(=Nc3ccc(F)cc3)C(C)C)c2)cc1` [Compound 231], the “LC50 HF” value in assay [1] was more than 100 µg. The “LC50 BBA” value in assay [2] was found to be 0.01%. Further, the “LC50 TBW E (eggs)” value in assay [3] is given as more than 0.1%. Besides, the “LC50 CL” value in assay [4] was found to be 0.003%.
The matching figures for `CC(C)C(=Nc1c(F)c(F)c(F)c(F)c1F)OCc1cccc(Oc2ccc(F)cc2F)c1` [Compound 232]: more than 100 µg, more than 0.05%, more than 0.1% and 0.004%.
For the molecule `CC(C)C(=Nc1ccc(C#N)c(F)c1)OCc1cccc(Oc2ccccc2)c1` [Compound 233], the “LC50 HF” value in assay [1] was found to be 10 µg. For the same molecule, the “LC50 BBA” value in assay [2] was determined as 0.01%. Besides, in assay [3], the “LC50 TBW E (eggs)” value came out at 0.09%. In assay [4], the “LC50 CL” value was 0.0017%.
On to `CC(C)C(=Nc1ccc(C(C)(C)C)cc1)OCc1cccc(Oc2ccc(F)cc2)c1` [Compound 235], for which the “LC50 HF” value in assay [1] was more than 100 µg. For the same molecule, the “LC50 BBA” value in assay [2] worked out at 0.01%. Also, the “LC50 TBW E (eggs)” value in assay [3] is on record as more than 0.1%. In addition, the “LC50 CL” value in assay [4] is 0.004%.
As to `Cc1cc(N=C(OCc2cccc(Oc3ccc(F)cc3)c2)C(C)C)ccc1F` [Compound 236], in assay [1], the “LC50 HF” value was 7 µg. Moreover, in assay [2], the “LC50 BBA” value is 0.003%. Besides, the “LC50 TBW E (eggs)” value in assay [3] is on record as 0.06%. For the same molecule, the “LC50 CL” value in assay [4] is given as 0.0018%.
`CC(C)C(=Nc1ccc(Cl)cc1)OCc1cccc(Oc2ccc(Br)cc2)c1` [Compound 237]: the “LC50 HF” value in assay [1] came out at 50 µg. Also, the “LC50 BBA” value in assay [2] came out at 0.01%. The “LC50 TBW E (eggs)” value in assay [3] is listed as 0.075%. The “LC50 CL” value in assay [4] was 0.0006%.
The matching figures for `CC(C)C(=Nc1ccc2c(c1)OC(C)(C)O2)OCc1cccc(Oc2ccc(Cl)cc2)c1` [Compound 241]: more than 100 µg, less than 0.05%, more than 0.1% and 0.0004%.
In the same order, the values of `CC(C)C(=Nc1ccc2c(c1)CCO2)OCc1cccc(Oc2ccccc2)c1` [Compound 243] are 9 µg, 0.01%, more than 0.1% and 0.005%.
In the same order, the values of `CC(C)C(=Nc1ccc2c(c1)OCO2)OCc1cccc(Oc2ccc(C(F)(F)F)cc2)c1` [Compound 246] are 60 µg, more than 0.05%, more than 0.1% and 0.004%.
In the case of `CC(C)C(=Nc1ccc(F)c(Cl)c1)OCc1cccc(Oc2ccc(C(F)(F)F)cc2)c1` [Compound 247], in assay [1], the “LC50 HF” value was more than 100 µg. The “LC50 BBA” value in assay [2] is on record as more than 0.05%. Moreover, the “LC50 TBW E (eggs)” value in assay [3] is reported as more than 0.1%. For the same molecule, the “LC50 CL” value in assay [4] amounted to 0.009%.
The matching figures for `COc1cc(N=C(OCc2cccc(Oc3ccccc3)c2)C(C)C)cc(OC)c1OC` [Compound 248]: 40 µg, more than 0.05%, more than 0.1% and 0.02%.
In the same order, the values of `Cc1cccc(N=C(OCc2cccc(Oc3ccccc3)c2)C(C)C)c1C` [Compound 249] are 36 µg, 0.0003%, 0.035% and 0.0025%.
In the case of `Cc1ccc(C)c(N=C(OCc2cccc(Oc3ccccc3)c2)C(C)C)c1` [Compound 250], the “LC50 HF” value in assay [1] came out at 38 µg. Further, the “LC50 BBA” value in assay [2] is 0.0006%. For the same molecule, the “LC50 TBW E (eggs)” value in assay [3] was found to be 0.038%. Also, the “LC50 CL” value in assay [4] is recorded as 0.004%.
Take `CC(C)C(=Nc1ccc(Br)c(Br)c1)OCc1cccc(Oc2ccc(F)cc2)c1` [Compound 251]: the “LC50 HF” value in assay [1] came out at 25 µg. Besides, the “LC50 BBA” value in assay [2] was determined as 0.001%. For the same molecule, in assay [3], the “LC50 TBW E (eggs)” value was found to be 0.06%. Further, the “LC50 CL” value in assay [4] is 0.0005%.
The matching figures for `CC(C)C(=Nc1ccc(Br)c(Br)c1)OCc1cccc(Oc2ccccc2)c1` [Compound 252]: 34 µg, 0.002%, 0.04% and 0.0035%.
In the same order, the values of `CC(C)C(=Nc1cccc(Cl)c1)OCc1cccc(Oc2ccc(Br)cc2)c1` [Compound 260] are 22 µg, 0.006%, more than 0.1% and 0.00075%.
In the same order, the values of `CCC(C)C(=Nc1ccc(F)c(Cl)c1)OCc1ccc(F)c(Oc2ccccc2)c1` (centres unmarked) [Compound 261] are 24 µg, 0.002%, 0.05% and 0.001%.
Regarding `Cc1ccc(Cl)cc1N=C(OCc1cccc(Oc2ccccc2)c1)C(C)C` [Compound 263], the “LC50 HF” value in assay [1] was more than 100 µg. For the same molecule, in assay [2], the “LC50 BBA” value is more than 0.05%. The “LC50 TBW E (eggs)” value in assay [3] is more than 0.1%. Moreover, the “LC50 CL” value in assay [4] was found to be 0.05%.
